Data on two compounds can be found in patent US11160758B2, “Modified release formulations and uses thereof” (Sunovion Pharmaceuticals Inc., priority 2019, dated 2021).

One series relates to freely moving rats. Description: Sleep study of (R)-amisulpride, EEG/EMG (Example 3A). The note with it: 10, 30, 100 mg/kg, p.o. The format is in vivo, rat. As for the experimental part: Rapid eye movement (REM) sleep time, non-rapid eye movement (NREM) sleep time, WAKE time were measured using electroencephalogram (EEG) and electromyogram (EMG) recordings. […] EEG and EMG recordings were made for 6 hr starting at the beginning of the light phase. Vehicle (0.05 N HCl/0.5% Methyl Cellulose 400 solution) or dosing suspensions were orally administered 10 min before the beginning of light phase. The volume of administration was 5 mL/kg. The order of drug treatment varied pseudo-randomly and at least 1 week was allowed between the experiments for individual animals.
A radio transmitter (TL11M2-F40-EET; Data Science International, New Brighton, Minn., USA) was implanted subcutaneously in the back of anesthetized animals, and a pair of electrode wires was stereotaxically implanted into the skull in the following locations: one in the frontoparietal (2 mm anterior to the bregma and 2 mm left to the midline), and the other in parietal (5 mm posterior to the bregma and 2 mm right to the midline) areas. The EEG electrodes were fixed using dental cement. Electromyograms (EMG) were recorded from the dorsal neck muscle. […] EEG/EMG were recorded in the home cages in a soundproof box using Dataquest A.R.T. software (Data Science International, New Brighton, Minn., USA) at a sampling rate of 500 Hz. […]

The subject of series [1] is healthy volunteers. The experiment in a line: REM suppression polysomnography (PSG) study of (R)-amisulpride (Example 5). The format is in vivo, human. As for the experimental part: REM suppression was the biomarker used to determine clinically-significant levels of 5-HT7 antagonism and its pharmacodynamics. REM suppression was assessed by total time in minutes spent in REM sleep and by the latency in minutes to REM sleep. […] REM suppression in human volunteers is an established translational biomarker useful to identify doses for antidepressant effects in patients.
The primary endpoint was REM sleep suppression as determined at post dose time points in the measures of latency to REM sleep, REM sleep time in minutes, and percent decrease in REM sleep time relative to total sleep time.
The REM suppression time value is the Least Square Mean differences from placebo, and the error bars represent the 90% confidence interval (CI).
The results presented in Tables 21-23 were determined from an analysis of the date based on a linear mixed model with terms for treatment, period, and treatment sequence as fixed effects, respective baseline PSG value as a continuous covariate, and treatment-by-baseline PSG interaction, and subject nested within sequence as a random effect, the Kenward and Roger correction for the degrees of freedom and an unstructured covariance structure to model the intrasubject correlation. The abbreviations used in Tables 21-23 are as follows: PSG=polysomnography; CI=confidence interval; LS=least-squares; REM=rapid eye movement; SE=standard error.

The subject of series [2] is healthy volunteers. The experiment in a line: concentration-QTc analysis, linear mixed-effects model (Example 7A). The format is in vivo, human. The procedure:
The effect of amisulpride (enantiomers and total) on change-from-baseline QTcF and heart rate (ΔQTcF and ΔHR) was evaluated based on a linear mixed-effects model at each nominal post-dosing time point (“by-time point analysis”) using the intersection union test. In the concentration-QTc analysis (primary analysis), the full model included ΔQTcF as the dependent variable, time-matched plasma concentrations of R- and S- and total amisulpride enantiomers as the explanatory variates, centered baseline QTcF (i.e., baseline QTcF for individual subject subtracting the population mean baseline QTcF for all subjects) as an additional covariate, a fixed intercept, and random effect for both intercept and slopes per subject, when applicable. A pre-specified model selection procedure was then performed to choose a primary model from among the full model and reduced models from possible first order combinations (without quadratic and interaction terms) among these 3 analytes of concentrations of R- and S-enantiomers and total amisulpride (including models with only 1 analyte and with any 2 analytes).
The observations and a linear mixed-effects model parameters derived therefrom was used to estimate the ΔQTcF at the observed Cmax of the formulation Lots studied.

The conditions of series [3]: human, in vivo, po.
The conditions of series [4]: Coukell et al 1996; cited from earlier work.
A short description of the next series: clinical. The conditions noted are these: human, in vivo.
Setting [5] is: linear mixed-effects model, total amisulpride concentration vs ΔQTcF.

Consider `CCN1CCC[C@@H]1CNC(=O)c1cc(S(=O)(=O)CC)c(N)cc1OC` [(R)-amisulpride, R-4-Amino-N-[(1-ethyl-2-pyrrolidinyl)methyl]-5-(ethylsulfonyl)-2-methoxybenzamide], for which the “NREM sleep time and WAKE time” value in the series with freely moving rats is “no observed effect”. The REM sleep duration entry in the series with freely moving rats (light phase) was “reduced REM sleep duration in dose-dependent manner”. Moreover, the tolerability entry with healthy volunteers [1] (healthy subjects) is recorded as “well tolerated”. Moreover, in the series on healthy volunteers [1] (in vivo), the “vital signs and ECGs” value is reported as “normal”.

Consider `CCN1CCCC1CNC(=O)c1cc(S(=O)(=O)CC)c(N)cc1OC` (stereo not drawn) [amisulpride, 4-amino-N-[(1-ethylpyrrolidin-2-yl)methyl]-5-ethylsulfonyl-2-methoxy-benzamide], for which the “estimated population slope of the concentration-QTc relationship” value with healthy volunteers [2] (90% CI: 0.0257 to 0.0369) is listed as 0.031 ms per ng/mL. The “intercept of the concentration-QTc relationship” value with healthy volunteers [2] (90% CI: −4.88 to 0.27) is -2.3 ms. In the series with healthy volunteers [2] (setting [5]), the “Centered Baseline Effect of concentration-QTc relationship model” value was -0.23 ms, the “Intercept of concentration-QTc relationship model” value was -2.31 ms and the “Total Amisulpride Slope of concentration-QTc relationship model” value amounted to 0.031 ms per ng/mL. Moreover, the “washout observed for blood plasma concentration” value in series [3] is given as “approximately 24 hour”. Besides, the terminal plasma half-life entry in series [4] is recorded as “approximately 12 hours”. Also, in “clinical”, the concentration at 0.5 hr is 346 ng/mL, the concentration at 1 hr stood at 294 ng/mL, the concentration at 2 hr is 432 ng/mL and the concentration at 3 hr amounted to 516 ng/mL. In addition, in “clinical”, the concentration at 4 hr is 272 ng/mL, the concentration at 6 hr was found to be 163 ng/mL, the concentration at 8 hr was 96.8 ng/mL and the concentration at 10 hr was found to be 69.9 ng/mL. In the series “clinical”, the concentration at 12 hr amounted to 55.6 ng/mL, the concentration at 24 hr stood at 21.2 ng/mL, the concentration at 36 hr turned out to be 9.84 ng/mL and the concentration at 48 hr came to 7.02 ng/mL. In the series “clinical”, this compound registered a concentration at 72 hr of 1.48 ng/mL.
